These are literature values, as cited in article PMC10322880 (Communications Biology, 2023).

In the data set the test system is SARS-CoV-2. The settings on record: phase 2/3 clinical trial.

As for `Cn1cnc(Cn2c(=O)[nH]/c(=N\c3cc4cn(C)nc4cc3Cl)n(Cc3cc(F)c(F)cc3F)c2=O)n1` [ensitrelvir], the SARS-CoV-2 clearance entry is listed as “rapid SARS-CoV-2 clearance” and the tolerability result is reported as “well tolerated”.
